According to ChEMBL document CHEMBL1148249, “Design and synthesis of bridged gamma-lactams as analogues of beta-lactam antibiotics” (Bioorg Med Chem Lett, 2004):
Values after ≈ are worked out from the molar mass of the structure shown. Active and inactive are the calls of the source. No cut-off for these calls is given here.

How the values were obtained:
[1] = Antibacterial activity expressed as binding to PBP 1a of Pseudomonas aeruginosa
[2] = Antibacterial activity expressed as binding to PBP 1b of Pseudomonas aeruginosa
[3] = Antibacterial activity expressed as binding to PBP 2 of Pseudomonas aeruginosa
[4] = Antibacterial activity expressed as binding to PBP 4 of Pseudomonas aeruginosa
[5] = Antibacterial activity expressed as binding to PBP 5 of Pseudomonas aeruginosa
Staphylococcus aureus [6] = experiment: Minimum inhibitory concentration against Staphylococcus aureus; No activity; format: functional, organism-based
[7] = Time dependent inhibition of hydrolysis of nitrocefin after 5 min pre-incubation with TEM-1 beta-lactamase (class 1)
[8] = Half life at a pH of 9 and temperature 37 degree; format: ADME; conditions: pH 9
[9] = Inhibition of hydrolysis of nitrocefin after 5 min pre-incubation with TEM-1 beta-lactamase (class 1)
Enterobacter cloacae = experiment: Minimum inhibitory concentration against Enterobacter cloacae; 40-80 ug/mL; format: functional
[10] = Antibacterial activity expressed as binding to PBP 3 of Pseudomonas aeruginosa
Pseudomonas aeruginosa = experiment: Minimum inhibitory concentration against Pseudomonas aeruginosa; 40-80 ug/mL; format: functional
Serratia marcescens = experiment: Minimum inhibitory concentration against Serratia marcescens; 40-80 ug/mL; format: functional
Staphylococcus aureus [11] = experiment: Minimum inhibitory concentration against Staphylococcus aureus;; format: functional

SMILES | MIC (Staphylococcus aureus [6]) | IC50 [7] [µM] | half-life [8] [min] | IC50 [9] [µM] | also measured
CC(O)[C@H]1C(=O)N2C(C(=O)O)=C(SCCNC=N)C[C@H]12 (single isomer, unassigned) [IMIPENEM ANHYDROUS] |  |  |  |  | IC50 [1]: 0.3 µM; IC50 [2]: 0.6 µM; IC50 [3]: < 0.6 µM; IC50 [4]: < 0.1 µM; IC50 [5]: 2.3 µM
CC[C@@H]1C(=O)N2C[C@@H]1C=C(OC)C2C(=O)OCc1ccc([N+](=O)[O-])cc1 (stereo partly specified) | inactive | 420 | 55 |  | 
COC1=CC2CC(=O)N(C2)C1C(=O)OCc1ccc([N+](=O)[O-])cc1 (stereo unspecified) | inactive |  |  | 45 | 
CC[C@@H]1C(=O)N2C[C@@H]1CC(OC)=C2C(=O)OCc1ccc([N+](=O)[O-])cc1 | inactive |  | 42 | > 1000 | 
COC1=C(C(=O)OCc2ccc([N+](=O)[O-])cc2)N2C[C@@H](CC2=O)C1 | inactive |  | 6 | 54 | 

Now from value to compound, other results behind:

MIC (Staphylococcus aureus [6]) | IC50 [7] [µM] | half-life [8] [min] | IC50 [9] [µM] | SMILES | also measured
inactive | 700 | 25 |  | CC[C@@H]1C(=O)N2C[C@@H]1CC(OC)=C2C(=O)O | MIC (Enterobacter cloacae): 80 µg/mL (≈ 355 µM); IC50 [1]: > 50 µM; IC50 [2]: > 50 µM; IC50 [3]: 50 µM; IC50 [10]: 5 µM; IC50 [4]: 5 µM; IC50 [5]: 50 µM; MIC (Pseudomonas aeruginosa): 80 µg/mL (≈ 355 µM); MIC (Serratia marcescens): 80 µg/mL (≈ 355 µM)
 |  | 14 | 280 | COC1=C[C@@H]2CC(=O)N(C2)C1C(=O)O (stereo partly specified) | MIC (Enterobacter cloacae): 80 µg/mL (≈ 406 µM); MIC (Pseudomonas aeruginosa): 80 µg/mL (≈ 406 µM); MIC (Serratia marcescens): 80 µg/mL (≈ 406 µM); MIC (Staphylococcus aureus [11]): 80 µg/mL (≈ 406 µM)
 | 0.065 | 120 |  | O=C(O)[C@H]1/C(=C/CO)O[C@@H]2CC(=O)N21 [CLAVULANIC ACID] | 
